Patent US6147100A, “Pyrrolidine derivatives having phospholipase A2 inhibitory activity” (Shionogi & Co., Ltd., priority 1997, dated 2000)

What was measured:
[1] = system: production of prostaglandin E2 by human fibroblasts; assay: Inhibition of Production of Prostaglandin E2 in Human Fibroblasts (IL-1 stimulation); assay type: cell-based; conditions: Fibroblast; human fibroblasts under stimulation with IL-1
Method: Test Example 2 Inhibition of Production of Prostaglandin E2 in Human Fibroblasts.
In order to examine the availability of the composition for inhibiting cytosolic phospholipase A2 (cPLA2) on the cells, the compounds of the present invention were tested for the effect on the production of prostaglandin E2 by human fibroblasts under the stimulation with IL-1 according to the method of J. M. Dayer et al (CACHECTIN/TUMOR NECROSIS FACTOR STIMULATES COLLAGENASE AND PROSTAGLANDIN E2 PRODUCTION BY HUMAN SYNOVIAL CELLS AND DERMAL FIBROBLASTS; J. M. Dayer, B, Beutler and A, Cerami, J. EXP. Med., 1985, 162, 2163-2168.).

cPLA2 = molecular target: T1, cPLA2 (Homo sapiens, UniProt P47712); assay: cPLA2 Inhibitory Activity; assay type: biochemical; conditions: 1-palmitoyl-2-[14C]-arachidonoyl-sn-glycero-3-phosphocholine 2.5 μM, sn-1,2-dioleoylglycerol 1.25 μM; pH 7.5, 15 min at 37° C.
T1 sequence (P47712 1-749): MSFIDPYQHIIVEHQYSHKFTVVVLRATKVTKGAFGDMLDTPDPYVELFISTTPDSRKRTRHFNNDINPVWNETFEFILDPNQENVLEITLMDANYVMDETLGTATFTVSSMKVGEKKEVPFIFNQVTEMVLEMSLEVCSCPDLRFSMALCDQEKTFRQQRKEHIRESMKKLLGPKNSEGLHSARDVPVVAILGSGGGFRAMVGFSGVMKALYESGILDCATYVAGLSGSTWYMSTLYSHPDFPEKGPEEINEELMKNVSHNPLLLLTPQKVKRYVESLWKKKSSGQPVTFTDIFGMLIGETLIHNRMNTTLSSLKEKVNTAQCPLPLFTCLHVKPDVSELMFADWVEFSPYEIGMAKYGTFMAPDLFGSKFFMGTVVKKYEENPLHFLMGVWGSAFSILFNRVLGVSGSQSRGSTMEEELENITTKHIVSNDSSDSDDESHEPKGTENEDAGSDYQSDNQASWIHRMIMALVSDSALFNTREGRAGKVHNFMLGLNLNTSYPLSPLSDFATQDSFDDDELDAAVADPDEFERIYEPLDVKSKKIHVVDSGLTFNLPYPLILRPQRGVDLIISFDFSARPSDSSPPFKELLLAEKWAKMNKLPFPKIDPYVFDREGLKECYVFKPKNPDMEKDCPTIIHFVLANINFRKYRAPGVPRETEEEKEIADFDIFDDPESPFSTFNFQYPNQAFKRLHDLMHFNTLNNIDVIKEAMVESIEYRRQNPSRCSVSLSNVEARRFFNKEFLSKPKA
Method in brief: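 Radiometric assay in 50 mM HEPES pH 7.5 with 1 mM CaCl2, 150 mM NaCl, 0.1 mg/ml BSA and 1.7 mM DTT; compound and substrate added, reaction started with enzyme, 15 min at 37° C. Released fatty acids extracted (Dole method), counted by liquid scintillation versus no-compound control.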

SMILES | IC50 (cPLA2) | IC50 [1]
O=C1NC(=O)/C(=C/c2ccc(C(=O)NC[C@@H]3C[C@@H](Oc4ccc5ccccc5c4)CN3C(=O)c3ccccc3C(=O)c3ccc(F)cc3)cc2)S1 [Compound A-71] | 190 nM | 310 nM
CCN(CC)c1cccc(O[C@@H]2C[C@@H](CNC(=O)c3ccc(/C=C4\SC(=O)NC4=O)cc3)N(C(=O)c3ccccc3C(=O)c3ccc(F)cc3)C2)c1 [Compound A-89] | 96 nM | 490 nM
O=C1NC(=S)S/C1=C\c1ccc(NC(=O)[C@@H]2C[C@@H](OCc3ccccc3-c3ccccc3)CN2C(=O)c2ccccc2C(=O)c2ccc(F)cc2)s1 [Compound B-7] | 1000 nM | 8100 nM
CN(C(c1ccccc1)c1ccccc1)[C@@H]1C[C@@H](CNC(=O)c2ccc(/C=C3\SC(=O)NC3=O)cc2)N(C(=O)c2ccccc2C(=O)c2ccc(F)cc2)C1 [Compound M-12] | 94 nM | 230 nM
O=C1NC(=O)/C(=C/c2ccc(NC(=O)[C@@H]3C[C@@H](SCc4ccccc4-c4ccccc4)CN3C(=O)c3ccccc3C(=O)c3ccc(F)cc3)s2)S1 [Compound J-3] | 430 nM | 5700 nM
O=C1NC(=O)/C(=C/c2ccc(CC[C@@H]3C[C@@H](OCc4ccccc4-c4ccccc4)CN3C(=O)c3ccccc3C(=O)c3ccc(F)cc3)cc2)S1 [Compound E-2] | 280 nM | 1100 nM
O=C1NC(=O)/C(=C/c2ccc(C(=O)NC[C@@H]3C[C@H](SCc4ccccc4)CN3C(=O)c3ccccc3C(=O)c3ccccc3)cc2)S1 [Compound I-2] | 1000 nM | 660 nM
CN(C[C@@H]1C[C@@H](OCc2ccccc2-c2ccccc2)CN1C(=O)c1ccccc1C(=O)c1ccc(F)cc1)C(=O)c1ccc(/C=C2\SC(=O)NC2=O)cc1 [Compound G-1] | 780 nM | 980 nM
O=C1NC(=S)S/C1=C\c1ccc(C(=O)NC[C@@H]2C[C@@H](OCc3ccccc3-c3ccccc3)CN2C(=O)c2ccccc2C(=O)c2ccc(F)cc2)cc1 [Compound A-20] | 300 nM | 350 nM
O=C1NC(=O)/C(=C/c2ccc(C(=O)NC[C@@H]3C[C@@H](OCc4ccc(-c5ccccc5)cc4)CN3C(=O)c3ccccc3C(=O)c3ccccc3)cc2)S1 [Compound A-4] | 300 nM | 210 nM
O=C1NC(=O)/C(=C/c2ccc(C(=O)NC[C@@H]3C[C@@H](OCc4ccccc4-c4ccccc4)CN3C(=O)c3ccccc3C(=O)c3ccccc3)cc2)S1 [Compound A-1] | 170 nM | 170 nM
Cc1ccccc1CO[C@@H]1C[C@@H](CNC(=O)c2ccc(/C=C3\SC(=O)NC3=O)cc2)N(C(=O)c2ccccc2C(=O)c2ccc(F)cc2)C1 [Compound A-5] | 580 nM | 260 nM
O=C1NC(=S)S/C1=C\c1ccc(C(=O)NC[C@@H]2C[C@@H](OCc3ccccc3-c3ccccc3)CN2C(=O)c2ccccc2C(=O)c2ccc(Cl)cc2)cc1 [Compound A-28] | 280 nM | 1400 nM
O=C1NC(=O)/C(=C/c2ccc(C(=O)NC[C@@H]3C[C@@H](OCc4ccccc4-c4ccc(F)cc4)CN3C(=O)c3ccccc3C(=O)c3ccc(F)cc3)cc2)S1 [Compound A-30] | 98 nM | 460 nM
Cc1ccc(C(=O)c2ccccc2C(=O)N2C[C@H](OCc3ccccc3-c3ccccc3)C[C@H]2CNC(=O)c2ccc(/C=C3\SC(=S)NC3=O)cc2)cc1 [Compound A-27] | 430 nM | 1200 nM
Nc1ccccc1C(=O)c1ccccc1C(=O)N1C[C@H](OCc2ccccc2-c2ccccc2)C[C@H]1CNC(=O)c1ccc(/C=C2\SC(=O)NC2=O)cc1 [Compound A-23] | 460 nM | 1200 nM
O=C1NC(=O)/C(=C/c2ccc(C(=O)NC[C@@H]3C[C@H](OCc4ccccc4-c4ccccc4)CN3C(=O)c3ccccc3C(=O)c3ccc(F)cc3)cc2)S1 [Compound Q-3] | 200 nM | 490 nM
Cc1ccc(C(=O)c2ccccc2C(=O)N2C[C@H](OCc3ccccc3-c3ccccc3)C[C@H]2CNC(=O)c2ccc(/C=C3\SC(=O)NC3=O)cc2)cc1 [Compound A-21] | 430 nM | 230 nM

These reach a lower IC50 (cPLA2). Values come first.

IC50 (cPLA2) | SMILES | IC50 [1]
84 nM | O=C1NC(=O)/C(=C/c2ccc(C(=O)NC[C@@H]3C[C@@H](OCc4ccccc4-c4ccsc4)CN3C(=O)c3ccccc3C(=O)c3ccc(F)cc3)cc2)S1 [Compound A-38] | 430 nM
59 nM | O=C1NC(=O)/C(=C/c2ccc(C(=O)NC[C@@H]3C[C@@H](OCc4ccccc4Br)CN3C(=O)c3ccccc3C(=O)c3ccc(F)cc3)cc2)S1 [Compound A-33] | 460 nM
8 nM | COc1cccc(-c2cccc3ccccc23)c1O[C@@H]1C[C@@H](CNC(=O)c2ccc(/C=C3\SC(=O)NC3=O)cc2)N(C(=O)c2ccccc2C(=O)c2ccc(F)cc2)C1 [Compound A-118] | 2200 nM
71 nM | O=C1NC(=O)/C(=C/c2ccc(C(=O)NC[C@@H]3C[C@@H](OCc4ccccc4I)CN3C(=O)c3ccccc3C(=O)c3ccc(F)cc3)cc2)S1 [Compound A-34] | 480 nM
62 nM | O=C1NC(=O)/C(=C/c2ccc(C(=O)NC[C@@H]3C[C@@H](Oc4ccccc4-c4ccc5c(c4)OCO5)CN3C(=O)c3ccccc3C(=O)c3ccc(F)cc3)cc2)S1 [Compound A-101] | 350 nM
72 nM | O=C1NC(=O)/C(=C/c2ccc(C(=O)NC[C@@H]3C[C@@H](Oc4ccccc4C4CCCC4)CN3C(=O)c3ccccc3C(=O)c3ccc(F)cc3)cc2)S1 [Compound A-76] | 520 nM
59 nM | O=C1NC(=O)/C(=C/c2ccc(C(=O)NC[C@@H]3C[C@@H](Oc4ccccc4-c4cccc(C(F)(F)F)c4)CN3C(=O)c3ccccc3C(=O)c3ccc(F)cc3)cc2)S1 [Compound A-109] | 1200 nM
90 nM | O=C1NC(=O)/C(=C/c2ccc(C(=O)NC[C@@H]3C[C@@H](Oc4ccc(-c5ccccc5)cc4)CN3C(=O)c3ccccc3C(=O)c3ccc(F)cc3)cc2)S1 [Compound A-70] | 190 nM
58 nM | O=C1NC(=O)/C(=C/c2ccc(C(=O)NC[C@@H]3C[C@@H](COc4ccccc4-c4ccccc4)CN3C(=O)c3ccccc3C(=O)c3ccc(F)cc3)cc2)S1 [Compound O-2] | 230 nM
15 nM | COc1cccc(-c2ccccc2)c1O[C@@H]1C[C@@H](CNC(=O)c2ccc(/C=C3\SC(=O)NC3=O)cc2)N(C(=O)c2ccccc2C(=O)c2ccc(F)cc2)C1 [Compound A-117] | 200 nM
79 nM | CC(C)CN(Cc1ccccc1)[C@@H]1C[C@@H](CNC(=O)/C=C/c2ccc(/C=C3\SC(=O)NC3=O)cc2)N(C(=O)c2ccccc2C(=O)c2ccc(F)cc2)C1 [Compound M-18] | 8800 nM
69 nM | O=C1NC(=O)/C(=C/c2ccc(C(=O)NC[C@@H]3C[C@@H](Oc4ccccc4-c4ccccc4)CN3C(=O)c3ccccc3C(=O)c3ccc(F)cc3)cc2)S1 [Compound A-67] | 390 nM
60 nM | CCN(Cc1ccccc1-c1ccccc1)[C@@H]1C[C@@H](CNC(=O)c2ccc(/C=C3\SC(=O)NC3=O)cc2)N(C(=O)c2ccccc2C(=O)c2ccc(F)cc2)C1 [Compound M-8] | 800 nM
55 nM | O=C1NC(=O)/C(=C/c2ccc(S(=O)(=O)NC[C@@H]3C[C@@H](SCc4ccccc4-c4ccccc4)CN3C(=O)c3ccccc3C(=O)c3ccc(F)cc3)cc2)S1 [Compound I-3] | 980 nM
84 nM | O=C1NC(=S)S/C1=C\c1ccc(NC(=O)[C@@H]2C[C@@H](OCc3ccccc3-c3ccccc3)CN2C(=O)c2ccccc2C(=O)c2ccc(F)cc2)cc1 [Compound B-2] | 4000 nM
49 nM | O=C1NC(=O)C(=C/C=C/c2ccc(C(=O)NC[C@@H]3C[C@@H](OCc4ccccc4-c4ccccc4)CN3C(=O)c3ccccc3C(=O)c3ccc(F)cc3)cc2)S1 [Compound A-49] | 120 nM
48 nM | O=C1NC(=O)/C(=C/c2ccc(C(=O)NC[C@@H]3C[C@@H](OCc4ccccc4-c4ccc5ccccc5c4)CN3C(=O)c3ccccc3C(=O)c3ccc(F)cc3)cc2)S1 [Compound A-36] | 180 nM
86 nM | O=C1NC(=O)/C(=C/c2ccc(C(=O)NC[C@@H]3C[C@@H](OC(c4ccccc4)c4ccccc4)CN3C(=O)c3ccccc3C(=O)c3ccc(F)cc3)cc2)S1 [Compound A-29] | 2200 nM
